Data on two compounds can be found in patent publication US11209411B2, “Methods for analyzing stability of an active pharmaceutical ingredient” (Purdue Research Foundation, priority 2018, dated 2021).

Data set [1] is described as follows: Traditional forced degradation in bulk solution, oxidative (H2O2), nanospray MS. Conditions: 45 μg/mL, 0.3% H2O2, 90% methanol-10% H2O. It counts as physicochemical. From the text: (§1) Particularly, the degradation of three APIs in Leidenfrost droplets is exemplified, under conditions of constant volume achieved by adding make-up solvent automatically via a syringe pump during the levitation period. The data were compared with the degradation of the corresponding bulk material under similar conditions of solvent and temperature. In both droplet and bulk, degradation products are monitored by mass spectrometry and the ratio of products to reactants was used to infer the extent of reaction (Table 1).
(§2) Traditional forced degradation was performed by preparing a stock stress solution of hydrochloric acid or hydrogen peroxide, and a stock solution of the compound of interest (the API). Then the solutions were mixed and allowed to react at a set temperature for a set period of time (FIG. 1A). The composition of the final reaction mixture was analyzed by nanospray MS and the data for the bulk phase experiments are given in Table 1. Likewise, the Leidenfrost reaction mixture was made by the same method, then instead of letting the mixed solution age at a set temperature, it was dropped into a ceramic well which was placed on hot plate held at a temperature of 540° C. to form a much cooler Leidenfrost droplet (FIG. 1B). […] Here, both bulk and Leidenfrost products are analyzed by using nanospray MS.

A short description of data set [2]: Accelerated forced degradation in Leidenfrost droplets, oxidative (H2O2), nanospray MS. The class given is physicochemical. The following applies: 0.3% H2O2, 90% methanol-10% H2O.
Text: as §1, §2

Data set [3] is described as follows: Traditional forced degradation in bulk solution, acid (HCl), nanospray MS. Conditions: 450 μg/mL.
Text: as §1, §2

Data set [4] can be described thus: Accelerated forced degradation in Leidenfrost droplets, acid (HCl), nanospray MS. The class given is physicochemical. Conditions: 0.5M HCl, 90% propanol-10% H2O, without make-up solvent. The method, then: The data were compared with the degradation of the corresponding bulk material under similar conditions of solvent and temperature. In both droplet and bulk, degradation products are monitored by mass spectrometry and the ratio of products to reactants was used to infer the extent of reaction (Table 1).
as §2

Take `CN1CCN(CCCN2c3ccccc3Sc3ccc(C(F)(F)F)cc32)CC1` [Trifluoperazine (TFP), Trifluoperazine]: the “Set Ratio (products to reactants, extent of degradation)” value in data set [1] (40° C., reached after 1.5 h in bulk, 180 s in Leidenfrost droplet) is 3%. Moreover, the “Bulk Time” value in data set [1] (bulk 40° C., time to reach Set Ratio 3%) came to 1.5 h^. Also, the “Leidenfrost Time” value in data set [2] (45 μg/mL, Leidenfrost droplet 40° C., constant volume, time to reach Set Ratio 3%) turned out to be 180 s. The “Accel. Factor” value in data set [2] (Leidenfrost droplet vs bulk, 40° C.) is listed as roughly 20.
With `NS(=O)(=O)c1cc2c(cc1Cl)NCNS2(=O)=O` [Hydrochlorothiazide (HCTZ), Hydrochlorothiazide], in data set [3] (0.5M HCl, 90% propanol-10% H2O, bulk 80° C., time to reach Set Ratio 2.5%), the “Bulk Time” value was determined as 3 h. Besides, in data set [3] (3 h), the “Set Ratio (products to reactants, extent of degradation)” value came out at 2.5%^. The “Leidenfrost Time” value in data set [4] (450 μg/mL, Leidenfrost droplet 80° C., time to reach Set Ratio 2.5%) is 40 s. For the same compound, the “Accel. Factor” value in data set [4] (Leidenfrost droplet vs bulk, 80° C.) is recorded as roughly 270.
